Measurements taken from patent US20260042764A1, “COMPOSITIONS AND METHODS FOR INHIBITION OF KRAS” (TheRas, Inc., priority 2022, published 2026).

Assays:
[1] = molecular target: T1, Avi-KRAS WT (1-169) GppNHp/RAF1 RBD-3xFLAG (52-151) (Homo sapiens, UniProt P01116); assay: Raf1-KRAS WT-GppNHP disruption HTRF assay (Biological Example 1); format: binding; settings: KRAS WT, GppNHp-loaded; Table 11
T1 construct: Avi-KRAS WT (1-169)
Method: (§1) A protein:protein interaction (PPI) Homogeneous Time Resolved Fluorescence (HTRF) assay was used to determine the effectiveness of compounds of the present disclosure in disrupting KRAS protein and effector RAF1 binding.
(§2) The assay buffer included: 50 mM Tris pH 7.5, 100 mM NaCl, 5 mM MgCl2, 0.1% BSA, 0.01% Tween, and 10% DMSO. The bead buffer included: 50 mM Tris pH 7.5, and 0.01% Tween 20. Assay volume of 20 μL was used in a 384 well plate-low volume format.
(§3) The HTRF assay employed the following protocol:
(§4) Protein mix was prepared in assay buffer, and dispensed on plates, 10 μL per well, then incubated for 1 h at room temperature, with 700 rpm shaking, Reagents mix was prepared and dispensed on plates, 10 μL per well, then incubated for 1 h at room temperature, with 700 rpm shaking.
(§5) Data was reported as percentage of activity, with DMSO as 100%. Data was plotted and analyzed using Prism 8.

[2] = molecular target: T2, Avi-KRAS G12V (1-169) GppNHp/RAF1 RBD-3xFLAG (52-151) (Homo sapiens, UniProt P01116, G12V); assay: Raf1-KRAS G12V-GppNHP disruption HTRF assay (Biological Example 1); format: binding; settings: KRAS G12V, GppNHp-loaded; Table 11
T2 construct: Avi-KRAS G12V (1-169)
Method: as §1, §2, §3, §4, §5

[3] = molecular target: T3, Avi-KRAS G12R (1-169) GppNHp/RAF1 RBD-3xFLAG (52-151) (Homo sapiens, UniProt P01116, G12R); assay: Raf1-KRAS G12R-GppNHP disruption HTRF assay (Biological Example 1); format: binding; settings: KRAS G12R, GppNHp-loaded; Table 11
T3 construct: Avi-KRAS G12R (1-169)
Method: as §1, §2, §3, §4, §5

GP2d cells (KRAS G12D) = assay: Cell-based pERK HTRF assay in GP2d cell (Biological Example 2); settings: GP2d, GP2d (KRAS G12D) cells, pERK HTRF
Method: A pERK assay (Perkin Elmer) was used to determine the effectiveness of compounds in disrupting KRAS G12D protein/effector signaling in cells.
On Day 1, cells (GP2d) were seeded into 96-well plates at 3×10^4 cells/well in 80 μL complete growth media (DMEM, 10% FBS).
On Day 2, cells were treated with compounds at 0.25% DMSO. The source plate was created with compounds diluted in media at 5-fold the final assay concentration. The compounds were run in a 9-point concentration curve starting at 1 μM or in a 9-point concentration curve starting at 100 nM, with a half-log dilution between concentrations. Twenty μL was transferred onto the cell plates (final volume in wells was 100 μL). Plates were harvested after 60 min incubation by aspirating media and adding kit-supplied 1x supplemented lysis buffer to all wells (50 μL per well). Plates were then placed on a plate shaker and incubated at 850 rpm for an additional 30 min.
Antibody mixture solution was prepared by diluting aliquoted d2 and Eu Cryptate antibodies 1:20 in kit supplied detection buffer, and mixing the diluted antibodies solutions (1:1 v:v).
Samples were homogenized by pipetting up and down and then transferred (16 μL of cell lysates) from the 96-well cell culture plate to two wells of the HTRF 384-well detection plate containing the antibody solution. Plates were centrifuged (524 g for 1 min) and allowed to incubate between 4 and 24 h at room temperature. Maximum signal is reached after 4 h incubation time and remains stable over a period of 24 hours. Therefore, readings can be made between 4 and 24 h of incubation. Plates were centrifuged again (524 g for Imin), then analyzed on the EnVision plate reader using the following settings: Excitation 320 nm, Bandwidth 75 nm; Emission 615 nm, Bandwidth 85 nm; Gain 100%; Flashes 100; Lag 60 μs.

[4] = molecular target: T4, Avi-KRAS G12D (1-169) GppNHp/RAF1 RBD-3xFLAG (52-151) (Homo sapiens, UniProt P01116, G12D); assay: Raf1-KRAS G12D-GppNHP disruption HTRF assay (Biological Example 1); format: binding; settings: KRAS G12D, GppNHp-loaded; Table 11
T4 construct: Avi-KRAS G12D (1-169)
Method: as §1, §2, §3, §4, §5

T4 sequence (P01116 1-169 isoform P01116-2 G12D): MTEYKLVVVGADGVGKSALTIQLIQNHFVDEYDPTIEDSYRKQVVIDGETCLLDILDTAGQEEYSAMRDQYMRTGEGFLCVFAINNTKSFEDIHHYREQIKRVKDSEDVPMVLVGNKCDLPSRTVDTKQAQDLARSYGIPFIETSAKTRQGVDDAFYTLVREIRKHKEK
T1 sequence (P01116 1-169 isoform P01116-2): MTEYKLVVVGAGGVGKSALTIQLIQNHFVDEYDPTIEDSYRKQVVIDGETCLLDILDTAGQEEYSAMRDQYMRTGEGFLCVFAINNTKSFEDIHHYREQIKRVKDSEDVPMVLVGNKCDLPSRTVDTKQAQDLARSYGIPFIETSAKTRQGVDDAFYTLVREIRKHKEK
T3 sequence (P01116 1-169 isoform P01116-2 G12R): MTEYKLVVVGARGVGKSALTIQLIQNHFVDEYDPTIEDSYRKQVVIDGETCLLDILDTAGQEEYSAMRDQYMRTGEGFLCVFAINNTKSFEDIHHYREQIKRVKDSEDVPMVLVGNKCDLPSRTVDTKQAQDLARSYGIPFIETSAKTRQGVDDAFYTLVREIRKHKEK
T2 sequence (P01116 1-169 isoform P01116-2 G12V): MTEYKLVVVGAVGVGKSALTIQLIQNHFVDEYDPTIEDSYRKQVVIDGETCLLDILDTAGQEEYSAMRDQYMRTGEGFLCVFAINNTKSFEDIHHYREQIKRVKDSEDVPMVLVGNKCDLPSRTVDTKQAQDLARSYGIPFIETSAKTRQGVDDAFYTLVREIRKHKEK

| SMILES | IC50 [1] [nM] | IC50 [2] [nM] | IC50 [3] [nM] | IC50 (GP2d cells (KRAS G12D)) [nM] | IC50 [4] [nM] |
| --- | --- | --- | --- | --- | --- |
| CN(c1nc(OC[C@@]23CCCN2C[C@H](F)C3)nc2c(F)c(-c3ccc(F)c4sc(N)c(C#N)c34)c(Cl)cc12)[C@H]1C[C@@H](O)C1 [Compound 24] | 100 to 1000 | 100 to 1000 | 100 to 1000 | < 100 | 100 to 1000 |
| CN(c1nc(OC[C@@]23CCCN2C[C@H](F)C3)nc2c(F)c(-c3ccc(F)c4sc(N)c(C#N)c34)c(C(F)(F)F)cc12)[C@H]1C[C@@](C)(O)C1 [Compound 31, 2-amino-7-fluoro-4-(8-fluoro-2-(((2R,7aS)-2-fluorotetrahydro-1H-pyrrolizin-7a(5H)-yl)methoxy)-4-(((1s,3R)-3-hydroxy-3-methylcyclobutyl)(methyl)amino)-6-(trifluoromethyl)quinazolin-7-yl)benzo[b]thiophene-3-carbonitrile] | 100 to 1000 | 1000 to 10000 | 100 to 1000 | < 100 | 100 to 1000 |
| CN(c1nc(OCC23CCCN2CCC3)nc2c(F)c(-c3ccc(F)c4sc(N)nc34)c(C(F)(F)F)cc12)C1CC(O)C12CCCC2 (single isomer, unassigned) [Compound 10] | > 10000 | > 10000 | > 10000 | – | > 10000 |
| CN(c1nc(OC[C@@]23CCCN2C[C@H](F)C3)nc2c(F)c(-c3ccc(F)c4sc(N)nc34)c(C(F)(F)F)cc12)[C@H]1C[C@@H](O)C1 (atropisomer, axis not shown) [Compound 8] | 100 to 1000 | 100 to 1000 | 1000 to 10000 | – | 100 to 1000 |
| CN(c1nc(OCC23CCCN2CCC3)nc2c(F)c(-c3ccc(F)c4sc(N)nc34)c(C(F)(F)F)cc12)[C@H]1C[C@H](CO)C1 (atropisomer, axis not shown) [Compound 1] | 1000 to 10000 | > 10000 | – | – | 1000 to 10000 |
| CN(c1nc(OCC2(CN3CCOCC3)CC2)nc2c(F)c(-c3ccc(F)c4sc(N)nc34)c(C(F)(F)F)cc12)[C@H]1C[C@@H](O)C1 (atropisomer, axis not shown) [Compound 16] | 1000 to 10000 | 1000 to 10000 | 1000 to 10000 | – | 1000 to 10000 |
| CN(c1nc(OCC23CCCN2CCC3)nc2c(F)c(-c3ccc(F)c4sc(N)nc34)c(C(F)(F)F)cc12)C1CC(CO)C1 (stereo not shown) [Compound 4] | 1000 to 10000 | > 10000 | > 10000 | – | 1000 to 10000 |
| CN(c1nc(OCC23CCCN2CCC3)nc2c(F)c(-c3ccc(F)c4sc(N)nc34)c(-c3ccoc3)cc12)[C@H]1C[C@@H](O)C1 [Compound 6] | 1000 to 10000 | > 10000 | – | – | 1000 to 10000 |
| Nc1nc2c(-c3c(C(F)(F)F)cc4c(N5CCC(CO)CC5)nc(OCC56CCCN5CCC6)nc4c3F)ccc(F)c2s1 [Compound 43] | 100 to 1000 | 1000 to 10000 | 1000 to 10000 | – | 100 to 1000 |
| CCN(c1nc(OCC23CCCN2CCC3)nc2c(F)c(-c3ccc(F)c4sc(N)nc34)c(C(F)(F)F)cc12)[C@H]1C[C@@H](O)C1 (atropisomer, axis not shown) [Compound 7] | 1000 to 10000 | 1000 to 10000 | – | – | 1000 to 10000 |
| CN(c1nc(OCC23CCCN2CCC3)nc2c(F)c(-c3ccc(F)c4sc(N)nc34)c(C(F)(F)F)cc12)[C@H]1C[C@@H](O)C1 (atropisomer, axis not shown) [Compound 2] | 100 to 1000 | 1000 to 10000 | – | – | 100 to 1000 |

Continued, values first:

| IC50 [1] [nM] | IC50 [2] [nM] | IC50 [3] [nM] | IC50 (GP2d cells (KRAS G12D)) [nM] | IC50 [4] [nM] | SMILES |
| --- | --- | --- | --- | --- | --- |
| 100 to 1000 | 100 to 1000 | 100 to 1000 | < 100 | < 100 | CCN(CC)c1nc(OC[C@@]23CCCN2C[C@H](F)C3)nc2c(F)c(-c3ccc(F)c4sc(N)c(C#N)c34)c(C(F)(F)F)cc12 [Compound 152] |
| 1000 to 10000 | > 10000 | 1000 to 10000 | – | 1000 to 10000 | Nc1nc2c(-c3c(C(F)(F)F)cc4c(N5CC(CO)C5)nc(OCC56CCCN5CCC6)nc4c3F)ccc(F)c2s1 [Compound 57] |
| 1000 to 10000 | > 10000 | > 10000 | – | 1000 to 10000 | Nc1nc2c(-c3c(C(F)(F)F)cc4c(N5CCC(O)C5)nc(OCC56CCCN5CCC6)nc4c3F)ccc(F)c2s1 (stereo not shown) [Compound 55] |
| 1000 to 10000 | 1000 to 10000 | 1000 to 10000 | – | 1000 to 10000 | Nc1nc2c(-c3c(C(F)(F)F)cc4c(N[C@H]5CC[C@@H](O)CC5)nc(OCC56CCCN5CCC6)nc4c3F)ccc(F)c2s1 [Compound 64] |
| 100 to 1000 | 1000 to 10000 | 100 to 1000 | – | 100 to 1000 | CN(c1nc(OC[C@@]23CCCN2C[C@H](F)C3)nc2c(F)c(-c3ccc(F)c4sc(N)c(C#N)c34)c(C(F)(F)F)cc12)[C@]1(CC#N)C[C@H](O)C1 (atropisomer, axis not shown) [Compound 249] |
| > 10000 | > 10000 | 1000 to 10000 | – | 1000 to 10000 | Nc1nc2c(-c3c(C(F)(F)F)cc4c(N5CCCC(O)C5)nc(OCC56CCCN5CCC6)nc4c3F)ccc(F)c2s1 (stereo not shown) [Compound 53] |
| 1000 to 10000 | > 10000 | 1000 to 10000 | – | 1000 to 10000 | CN(c1nc(OCC23CCCN2CCC3)nc2c(F)c(-c3ccc(F)c4sc(N)nc34)c(C(F)(F)F)cc12)[C@@H]1CC[C@H](O)C1 (atropisomer, axis not shown) [Compound 62] |
| 1000 to 10000 | > 10000 | > 10000 | – | 1000 to 10000 | Nc1nc2c(-c3c(C(F)(F)F)cc4c(N5CCC(CO)C5)nc(OCC56CCCN5CCC6)nc4c3F)ccc(F)c2s1 (stereo not shown) [Compound 56] |
| 100 to 1000 | 100 to 1000 | – | 100 to 1000 | 100 to 1000 | N#Cc1c(N)sc2c(F)ccc(-c3c(C(F)(F)F)cc4c(N5CC6(CC(O)C6)C5)nc(OC[C@@]56CCCN5C[C@H](F)C6)nc4c3F)c12 [Compound 58] |
| 100 to 1000 | 100 to 1000 | 100 to 1000 | – | 100 to 1000 | CN(c1nc(OCC2(CN3CCOCC3)CC2)nc2c(F)c(-c3ccc(F)c4sc(N)c(C#N)c34)c(C(F)(F)F)cc12)[C@H]1C[C@@H](O)C1 (atropisomer, axis not shown) [Compound 122] |
| 100 to 1000 | 1000 to 10000 | 100 to 1000 | – | 100 to 1000 | CN(c1nc(OC[C@@]23CCCN2C[C@H](F)C3)nc2c(F)c(-c3ccc(F)c4sc(N)c(C#N)c34)c(C(F)(F)F)cc12)[C@H]1C[C@@H](F)C1 (atropisomer, axis not shown) [Compound 160] |
| 1000 to 10000 | > 10000 | – | – | 1000 to 10000 | Nc1nc2c(-c3c(C(F)(F)F)cc4c(N[C@H]5CC[C@H](O)CC5)nc(OCC56CCCN5CCC6)nc4c3F)ccc(F)c2s1 [Compound 63] |
| > 10000 | 1000 to 10000 | > 10000 | – | > 10000 | Nc1nc2c(-c3c(C(F)(F)F)cc4c(NC[C@@H]5CC[C@H](CO)C5)nc(OCC56CCCN5CCC6)nc4c3F)ccc(F)c2s1 [Compound 68] |
| 1000 to 10000 | > 10000 | – | – | 1000 to 10000 | Nc1nc2c(-c3c(C(F)(F)F)cc4c(N[C@H]5CC[C@H](O)C5)nc(OCC56CCCN5CCC6)nc4c3F)ccc(F)c2s1 (atropisomer, axis not shown) [Compound 61] |
| 1000 to 10000 | > 10000 | – | – | 1000 to 10000 | Nc1nc2c(-c3c(C(F)(F)F)cc4c(N[C@H]5CC[C@@H](O)C5)nc(OCC56CCCN5CCC6)nc4c3F)ccc(F)c2s1 (atropisomer, axis not shown) [Compound 60] |
